#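 Five compound concentrations were applied to cells in 96-well plates for 48 hours; endpoints were derived by simple linear interpolation of the resulting dose-response curve. GI50 = concentration required for 50% inhibition of growth. Definition used: TGI = concentration required for complete inhibition of growth.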
# System: HT29 colon
# Test: NCI-60 cell line screen, 48 h
Structure (SMILES),TGI,GI50
O=C(Nc1ccc([N+](=O)[O-])cc1[N+](=O)[O-])C(=O)C(C(=O)c1ccc2ccccc2c1)C1OC(=O)c2ccccc21 (stereo not drawn),36.4 µM,–
COc1cc(/C=C/C(=O)Oc2ccc(NC(C)=O)cc2)ccc1C(=O)O/C=C/c1ccccc1,> 100 µM,–
COc1ccc2c(c1)CCCN2CCCCCCCCCCN(CCC(C)C)CCC(C)C,18 µM,–
O=P1(c2ccccc2)Nc2ccccc2SSc2ccccc2N1,37.1 µM,–
COc1ccc(-c2nc3ncccn3c2-c2ccc(SC)cc2)cc1,28.1 µM,–
C[C@H]1C(=O)O[C@@H]2CCN3CC=C(COC(=O)[C@](C)(O)[C@@]1(C)O)[C@H]23,> 100 µM,–
N=C1C(=N)c2ccccc2-c2ccccc21.N=C1C(=N)c2ccccc2-c2ccccc21.N=C1C(=N)c2ccccc2-c2ccccc21.[Cl-].[Ru+2],> 31.6 µM,–
CN(C)C(=O)/C=C/c1c[nH]c(=O)[nH]c1=O,> 500 µM,–
CN(C)CCCn1cnc2cc(Cl)c(Cl)cc21,> 100 µM,–
NCCCn1c2c(c3ccc([N+](=O)[O-])cc3c1=O)C(=O)c1ccccc1-2,1.14 µM,0.0785 µM
O=C1NI(C#Cc2ccccc2)c2ccccc21,> 100 µM,–
CCc1nc(N)nc(N)c1-c1ccc([N+](C)(C)C)cc1,> 100 µM,–
Cc1cc2c(cc1C(=O)c1ccc(N)cc1)OCO2,61.3 µM,–
NCCc1cc(O)c(O)cc1O,67.6 µM,–
COc1ccc(C2=C3SC=c4ccccc4=C3ON=C2c2ccccc2)cc1,> 100 µM,–
CC(=O)NNc1nc(-c2ccc([N+](=O)[O-])cc2)c(C#N)c(=O)n1C,> 100 µM,–
COc1cc(C2CC(c3cccc(Nc4ccncc4)c3)=NN2c2ccc(Cl)cc2)cc(OC)c1OC (stereo not drawn),4.82 µM,1.87 µM
CCCOC(=O)CNC(=O)OC(C)(C)C,> 100 µM,–
CN(C)CCNC(=O)c1cccc2ccc(-c3ccc(F)cc3)nc12,17 µM,–

# System: SF-539 CNS
# Test: NCI-60 cell line screen, 48 h
Structure (SMILES),TGI,GI50
O=C(Nc1ccc([N+](=O)[O-])cc1[N+](=O)[O-])C(=O)C(C(=O)c1ccc2ccccc2c1)C1OC(=O)c2ccccc21 (stereo not drawn),18.6 µM,–
COc1cc(/C=C/C(=O)Oc2ccc(NC(C)=O)cc2)ccc1C(=O)O/C=C/c1ccccc1,> 100 µM,–
COc1ccc2c(c1)CCCN2CCCCCCCCCCN(CCC(C)C)CCC(C)C,11.1 µM,–
O=P1(c2ccccc2)Nc2ccccc2SSc2ccccc2N1,34.3 µM,–
COc1ccc(-c2nc3ncccn3c2-c2ccc(SC)cc2)cc1,5.85 µM,–
C[C@H]1C(=O)O[C@@H]2CCN3CC=C(COC(=O)[C@](C)(O)[C@@]1(C)O)[C@H]23,> 100 µM,–
N=C1C(=N)c2ccccc2-c2ccccc21.N=C1C(=N)c2ccccc2-c2ccccc21.N=C1C(=N)c2ccccc2-c2ccccc21.[Cl-].[Ru+2],3.27 µM,–
CCOC(=O)c1c2c(n(Cc3ccccc3)c1C)C(=O)C(=O)c1ccccc1-2,0.521 µM,–
CN(C)C(=O)/C=C/c1c[nH]c(=O)[nH]c1=O,> 500 µM,–
NCCCn1c2c(c3ccc([N+](=O)[O-])cc3c1=O)C(=O)c1ccccc1-2,0.596 µM,0.138 µM
O=C1NI(C#Cc2ccccc2)c2ccccc21,> 100 µM,–
CCc1nc(N)nc(N)c1-c1ccc([N+](C)(C)C)cc1,> 100 µM,–
Cc1cc2c(cc1C(=O)c1ccc(N)cc1)OCO2,79.7 µM,–
NCCc1cc(O)c(O)cc1O,44.3 µM,–
COc1ccc(C2=C3SC=c4ccccc4=C3ON=C2c2ccccc2)cc1,> 100 µM,–
CC(=O)NNc1nc(-c2ccc([N+](=O)[O-])cc2)c(C#N)c(=O)n1C,35.1 µM,–
COc1cc(C2CC(c3cccc(Nc4ccncc4)c3)=NN2c2ccc(Cl)cc2)cc(OC)c1OC (stereo not drawn),3.05 µM,1.64 µM
CCCOC(=O)CNC(=O)OC(C)(C)C,> 100 µM,–
CN(C)CCNC(=O)c1cccc2ccc(-c3ccc(F)cc3)nc12,14.9 µM,–

# System: SK-MEL-5 melanoma
# Test: NCI-60 cell line screen, 48 h
Structure (SMILES),TGI,GI50
Nc1n[nH]c(=O)c2c1c(I)cn2C1OC(CO)C(O)C1O (stereo not drawn),13.6 µM,–
O=C(Nc1ccc([N+](=O)[O-])cc1[N+](=O)[O-])C(=O)C(C(=O)c1ccc2ccccc2c1)C1OC(=O)c2ccccc21 (stereo not drawn),31.6 µM,–
COc1cc(/C=C/C(=O)Oc2ccc(NC(C)=O)cc2)ccc1C(=O)O/C=C/c1ccccc1,> 100 µM,–
COc1ccc2c(c1)CCCN2CCCCCCCCCCN(CCC(C)C)CCC(C)C,18.9 µM,–
O=P1(c2ccccc2)Nc2ccccc2SSc2ccccc2N1,31.6 µM,–
COc1ccc(-c2nc3ncccn3c2-c2ccc(SC)cc2)cc1,4.29 µM,–
C[C@H]1C(=O)O[C@@H]2CCN3CC=C(COC(=O)[C@](C)(O)[C@@]1(C)O)[C@H]23,> 100 µM,–
N=C1C(=N)c2ccccc2-c2ccccc21.N=C1C(=N)c2ccccc2-c2ccccc21.N=C1C(=N)c2ccccc2-c2ccccc21.[Cl-].[Ru+2],3.71 µM,1.91 µM
CCOC(=O)c1c2c(n(Cc3ccccc3)c1C)C(=O)C(=O)c1ccccc1-2,0.742 µM,–
CN(C)C(=O)/C=C/c1c[nH]c(=O)[nH]c1=O,> 500 µM,–
CN(C)CCCn1cnc2cc(Cl)c(Cl)cc21,> 100 µM,–
NCCCn1c2c(c3ccc([N+](=O)[O-])cc3c1=O)C(=O)c1ccccc1-2,0.479 µM,0.0956 µM
O=C1NI(C#Cc2ccccc2)c2ccccc21,> 100 µM,–
CCc1nc(N)nc(N)c1-c1ccc([N+](C)(C)C)cc1,> 100 µM,–
Cc1cc2c(cc1C(=O)c1ccc(N)cc1)OCO2,61.4 µM,–
NCCc1cc(O)c(O)cc1O,38.6 µM,–
COc1ccc(C2=C3SC=c4ccccc4=C3ON=C2c2ccccc2)cc1,> 100 µM,–
CC(=O)NNc1nc(-c2ccc([N+](=O)[O-])cc2)c(C#N)c(=O)n1C,> 100 µM,–
COc1cc(C2CC(c3cccc(Nc4ccncc4)c3)=NN2c2ccc(Cl)cc2)cc(OC)c1OC (stereo not drawn),3.14 µM,1.75 µM
CCCOC(=O)CNC(=O)OC(C)(C)C,> 100 µM,–
CN(C)CCNC(=O)c1cccc2ccc(-c3ccc(F)cc3)nc12,11.1 µM,–

# System: SN12C renal
# Test: NCI-60 cell line screen, 48 h
Structure (SMILES),TGI,GI50
Nc1n[nH]c(=O)c2c1c(I)cn2C1OC(CO)C(O)C1O (stereo not drawn),66.1 µM,–
O=C(Nc1ccc([N+](=O)[O-])cc1[N+](=O)[O-])C(=O)C(C(=O)c1ccc2ccccc2c1)C1OC(=O)c2ccccc21 (stereo not drawn),54.7 µM,–
COc1cc(/C=C/C(=O)Oc2ccc(NC(C)=O)cc2)ccc1C(=O)O/C=C/c1ccccc1,> 100 µM,–
O=P1(c2ccccc2)Nc2ccccc2SSc2ccccc2N1,32.8 µM,–
COc1ccc(-c2nc3ncccn3c2-c2ccc(SC)cc2)cc1,> 100 µM,–
C[C@H]1C(=O)O[C@@H]2CCN3CC=C(COC(=O)[C@](C)(O)[C@@]1(C)O)[C@H]23,> 100 µM,–
N=C1C(=N)c2ccccc2-c2ccccc21.N=C1C(=N)c2ccccc2-c2ccccc21.N=C1C(=N)c2ccccc2-c2ccccc21.[Cl-].[Ru+2],2.94 µM,–
CCOC(=O)c1c2c(n(Cc3ccccc3)c1C)C(=O)C(=O)c1ccccc1-2,0.333 µM,–
CN(C)C(=O)/C=C/c1c[nH]c(=O)[nH]c1=O,> 500 µM,–
CN(C)CCCn1cnc2cc(Cl)c(Cl)cc21,> 100 µM,–
NCCCn1c2c(c3ccc([N+](=O)[O-])cc3c1=O)C(=O)c1ccccc1-2,0.16 µM,0.0297 µM
O=C1NI(C#Cc2ccccc2)c2ccccc21,> 100 µM,–
CCc1nc(N)nc(N)c1-c1ccc([N+](C)(C)C)cc1,> 100 µM,–
Cc1cc2c(cc1C(=O)c1ccc(N)cc1)OCO2,> 100 µM,–
NCCc1cc(O)c(O)cc1O,39.4 µM,–
COc1ccc(C2=C3SC=c4ccccc4=C3ON=C2c2ccccc2)cc1,> 100 µM,–
CC(=O)NNc1nc(-c2ccc([N+](=O)[O-])cc2)c(C#N)c(=O)n1C,> 100 µM,–
COc1cc(C2CC(c3cccc(Nc4ccncc4)c3)=NN2c2ccc(Cl)cc2)cc(OC)c1OC (stereo not drawn),2.95 µM,1.54 µM
CN(C)CCNC(=O)c1cccc2ccc(-c3ccc(F)cc3)nc12,25.2 µM,–

# System: SF-295 CNS
# Test: NCI-60 cell line screen, 48 h
Structure (SMILES),TGI,GI50
Nc1n[nH]c(=O)c2c1c(I)cn2C1OC(CO)C(O)C1O (stereo not drawn),9.74 µM,–
O=C(Nc1ccc([N+](=O)[O-])cc1[N+](=O)[O-])C(=O)C(C(=O)c1ccc2ccccc2c1)C1OC(=O)c2ccccc21 (stereo not drawn),55.1 µM,–
COc1cc(/C=C/C(=O)Oc2ccc(NC(C)=O)cc2)ccc1C(=O)O/C=C/c1ccccc1,> 100 µM,–
COc1ccc2c(c1)CCCN2CCCCCCCCCCN(CCC(C)C)CCC(C)C,27.4 µM,–
O=P1(c2ccccc2)Nc2ccccc2SSc2ccccc2N1,30.3 µM,–
COc1ccc(-c2nc3ncccn3c2-c2ccc(SC)cc2)cc1,3 µM,–
C[C@H]1C(=O)O[C@@H]2CCN3CC=C(COC(=O)[C@](C)(O)[C@@]1(C)O)[C@H]23,> 100 µM,–
N=C1C(=N)c2ccccc2-c2ccccc21.N=C1C(=N)c2ccccc2-c2ccccc21.N=C1C(=N)c2ccccc2-c2ccccc21.[Cl-].[Ru+2],3.23 µM,–
CCOC(=O)c1c2c(n(Cc3ccccc3)c1C)C(=O)C(=O)c1ccccc1-2,0.984 µM,–
CN(C)C(=O)/C=C/c1c[nH]c(=O)[nH]c1=O,> 500 µM,–
CN(C)CCCn1cnc2cc(Cl)c(Cl)cc21,> 100 µM,–
O=C1NI(C#Cc2ccccc2)c2ccccc21,> 100 µM,–
CCc1nc(N)nc(N)c1-c1ccc([N+](C)(C)C)cc1,> 100 µM,–
Cc1cc2c(cc1C(=O)c1ccc(N)cc1)OCO2,86 µM,–
NCCc1cc(O)c(O)cc1O,49.3 µM,–
COc1ccc(C2=C3SC=c4ccccc4=C3ON=C2c2ccccc2)cc1,> 100 µM,–
CC(=O)NNc1nc(-c2ccc([N+](=O)[O-])cc2)c(C#N)c(=O)n1C,> 100 µM,–
COc1cc(C2CC(c3cccc(Nc4ccncc4)c3)=NN2c2ccc(Cl)cc2)cc(OC)c1OC (stereo not drawn),3.05 µM,1.68 µM
CCCOC(=O)CNC(=O)OC(C)(C)C,> 100 µM,–
CN(C)CCNC(=O)c1cccc2ccc(-c3ccc(F)cc3)nc12,19.7 µM,–

# Reference: PubChem BioAssay (NCI)
